# Patent EP4169506B1, “PALMITOYLETHANOLAMIDE-BASED COMPOSITION IN THE FORM OF POWDERS WITH HIGH ENTERIC BIOACCESSIBILITY” (Geofarma S.r.l., priority 2021, dated 2023)
# Assay: Dispersion in tap water, then in simulated gastric and enteric liquid (GSF, FaSSIF V2)
# Type: physicochemical
# Conditions: 500 mg in 100 ml tap water, then GSF and FaSSIF V2, 37°C, 250 rpm, magnetic stirring (Figure 10)
# Text: • Figure 1. Representative image of the in vitro model of intestinal epithelium, with the Caco-2 cell monolayer grown on a Transwell® insert. • Figure 2. (A) Electron micrograph of enterocytes forming the Caco-2 monolayer with the microvilli and occluding junctions highlighted; (B) Confocal microscopy images highlighting the occluding junctions (red) and cell nuclei (blue). • Figure 3. Dimensional distribution of PEAMag®, normast® MPS microgranules and PEA of the invention measured by DLS at the end of the digestive process in vitro. • Figure 4. Bioaccessibility (A) and excreted fraction (B) of the PEA present in the three formulations, following exposure to the digestive process (* p<0.05). • Figure 5. Cell viability of intestinal epithelia exposed to digestive fluids in the absence of the formulations (0%) and increasing concentrations of PEAMag® (A), normast® MPS microgranules (B) and PEA of the invention (C) for 3 h (*cell viability < 70%). • Figure 6. TEER of intestinal epithelia exposed to digestive fluids in the absence of the formulations (0%) and increasing concentrations of PEAMag® (A), normast® MPS microgranules (B) and PEA of the invention (C) for 3 h. • Figure 7. […]
smiles,measurement,value
"CCCCCCCCCCCCCCCC(=O)NCCO [PEA, Palmitoylethanolamide]",dispersion behaviour,emergence of the PEA on the surface of the liquid
